Test results published in patent US9487566B2, “Method for purifying protein” (KYOWA HAKKO KIRIN CO., LTD, priority 2011, dated 2016).

Tests used:
neuraminidase [1] = test: Capillary electrophoresis of Erythropoietin from culture fluid held with amino acids (bound sialic acids); type: biochemical; conditions: 1 mol/L amino acid solution mixed in equivalent amount, 25° C. for 7 days, compared with purified water / initiation
Method: Purified water, 1 mol/L alanine solution, 1 mol/L arginine solution, or 1 mol/L glycine solution was mixed with the culture fluid containing Erythropoietin in an equivalent amount, respectively and then held at 25° C. for 7 days. Thereafter, Erythropoietin was purified using an anti-Erythropoietin antibody-immobilized affinity chromatography column, and the number of sialic acids binding to Erythropoietin was measured by capillary electrophoresis [Biol. Pharm. Bull. 33(9) 1596-1599 (2010)].

protease = conditions: glycine 0.5 mol/L or arginine 0.4 mol/L final, 25° C. for 6 days
neuraminidase [2] = test: Neuraminidase activity after addition of amino acids to Antithrombin eluate (enzyme assay); type: biochemical, CHO cell
Method: The Antithrombin concentration and the neuraminidase activity in the washing fraction before elution and in a particular range of eluate were measured by reversed-phase HPLC method [J. Chromatography B, 662, 209 (1994)] and enzyme assay [Glycobiology, 3, 455 (1993)], respectively.
Arginine hydrochloride or glycine of a final concentration of 0 to 500 mmol/L was added to the aqueous solution containing Antithrombin obtained in the elution process of Comparative Example 1. The neuraminidase activity in each solution was measured in the same manner as in Example 1.

[3] = tested on: Neuraminidase (manufactured by Nacalai Tesque); conditions: final concentration 1.0 mol/L, neuraminidase 0.0005 U/mL, 37° C. for 3 hours
Method: As a control group, purified water was added in the same amount as the neuraminidase. Glycine was added at a final concentration of 1.0 mol/L, or purified water as a control, and held at 37° C. for 3 hours.

[4] = Storage stability of purified Protein S by SDS-PAGE; type: physicochemical; conditions: held at 37° C. for 3 days vs frozen at −20° C.
Method: The Protein S-Example 16 and the Protein S-Comparative Example 3 were held at 37° C. for 3 days, or they were also frozen at −20° C., respectively.

Compound	number of sialic acids binding to Erythropoietin after holding (neuraminidase [1])	conversion of Protein S into the cleaved form (protease)	relative neuraminidase activity (activity at 0 mmol/L amino acid regarded as 1.0) (neuraminidase [2]; addition of 100 mmol/L)	change on storage (cleaved form, SDS-PAGE) [4]	also measured
C[C@H](N)C(=O)O [alanine]	the number of bound sialic acids was maintained	–	–	–	–
NCC(=O)O [glycine]	the number of bound sialic acids was maintained	conversion of Protein S into the cleaved form was inhibited	about 0.2	–	relative neuraminidase activity (activity at 0 mmol/L amino acid regarded as 1.0) (neuraminidase [2]; addition of 300 mmol/L or more, below the detection limit): 0; electrophoretic profile of Protein S (basic shift by loss of sialic acid) [3]: major bands were found in a more acidic region than the band of purified water-added one
N=C(N)NCCC[C@H](N)C(=O)O [arginine]	the number of bound sialic acids was equivalent	conversion of Protein S into the cleaved form was inhibited	about 0.2	–	relative neuraminidase activity (activity at 0 mmol/L amino acid regarded as 1.0) (neuraminidase [2]; addition of 200 mmol/L or more, below the detection limit): 0
Protein S-Example 16: Protein S obtained by the method described in Example 16 (purified using the mixed mode carrier)	–	–	–	no change	–
Protein S-Comparative Example 3: Protein S obtained by the method described in Comparative Example 3 (purified without using the mixed mode carrier)	–	–	–	the cleaved form was increased	–
